Assay results taken from PubChem BioAssay (NCI).
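Method: 48-hour compound exposure of cells in 96-well plates, five concentrations, linear interpolation of endpoints. GI50: concentration for 50% inhibition of growth. TGI: concentration producing complete growth inhibition.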

Legend:
Experiment in all cases: growth of human tumour cells (NCI), 48 h
[1] = tested on: ACHN renal
[2] = tested on: SNB-75 CNS
[3] = tested on: RPMI-8226 leukemia
[4] = tested on: HT29 colon
[5] = tested on: HOP-92 NSCLC
[6] = tested on: SF-539 CNS
[7] = tested on: HS 578T breast
[8] = tested on: NCI/ADR-RES ovarian
[9] = tested on: SN12C renal
[10] = tested on: MDA-MB-231 breast
[11] = tested on: SK-OV-3 ovarian
[12] = tested on: SK-MEL-5 melanoma
[13] = tested on: NCI-H23 lung
[14] = tested on: OVCAR-3 ovarian
[15] = tested on: HCT-15 colon
[16] = tested on: BT-549 breast
[17] = tested on: SR leukemia
[18] = tested on: COLO 205 colon
[19] = tested on: CAKI-1 renal
[20] = tested on: UO-31 renal
[21] = tested on: LOX IMVI melanoma
[22] = tested on: NCI-H460 lung
[23] = tested on: SF-295 CNS
[24] = tested on: HCC-2998 colon
[25] = tested on: NCI-H522 lung
[26] = tested on: K-562 leukemia
[27] = tested on: MOLT-4 leukemia
[28] = tested on: MALME-3M melanoma
[29] = tested on: M14 melanoma
[30] = tested on: HL-60(TB) leukemia
[31] = tested on: 786-0 renal
[32] = tested on: U251 CNS
[33] = tested on: HCT-116 colon
[34] = tested on: UACC-257 melanoma
[35] = tested on: OVCAR-4 ovarian
[36] = tested on: PC-3 prostate
[37] = tested on: DU-145 prostate
[38] = tested on: EKVX NSCLC
[39] = tested on: MCF7 breast
[40] = tested on: HOP-62 NSCLC
[41] = tested on: SW-620 colon
[42] = tested on: SNB-19 CNS
[43] = tested on: SK-MEL-2 melanoma
[44] = tested on: KM12 colon
[45] = tested on: UACC-62 melanoma
[46] = tested on: SK-MEL-28 melanoma
[47] = tested on: RXF 393 renal
[48] = tested on: A498 renal
[49] = tested on: CCRF-CEM leukemia
[50] = tested on: SF-268 CNS
[51] = tested on: A549 NSCLC
[52] = tested on: IGROV1 ovarian
[53] = tested on: MDA-MB-435
[54] = tested on: OVCAR-8 ovarian
[55] = tested on: OVCAR-5 ovarian
[56] = tested on: NCI-H226 lung
[57] = tested on: TK-10 renal
[58] = tested on: T-47D breast

For `O=C(CN1CCOCC1)Nc1ccc(Cn2nnc3c2C(=O)c2nnn(Cc4ccc(NC(=O)CN5CCOCC5)cc4)c2C3=O)cc1`, the GI50 [1] was 4010 nM, the TGI [1] was 20200 nM and the GI50 [2] was 1660 nM. For the same molecule, the TGI [2] was 3040 nM, the GI50 [3] was 365 nM and the TGI [3] was 2240 nM. It also gave a GI50 [4] of 364 nM, a TGI [4] of 1530 nM and a GI50 [5] of 822 nM. For the same molecule, the TGI [5] was 2340 nM, the GI50 [6] was 304 nM and the TGI [6] was 1070 nM. It also gave a GI50 [7] of 1940 nM, a TGI [7] of 8340 nM and a GI50 [8] greater than 100000 nM. It also gave a TGI [8] greater than 100000 nM, a GI50 [9] of 259 nM and a TGI [9] of 733 nM. The GI50 [10] was 260 nM, the TGI [10] was greater than 100000 nM and the GI50 [11] was 2680 nM. The TGI [11] was 8280 nM, the GI50 [12] was 249 nM and the TGI [12] was 877 nM. The GI50 [13] was 802 nM, the TGI [13] was 3610 nM and the GI50 [14] was 250 nM. The TGI [14] was 836 nM, the GI50 [15] was 7420 nM and the TGI [15] was greater than 100000 nM. It also gave a GI50 [16] of 1460 nM, a TGI [16] of 2830 nM and a GI50 [17] of 516 nM. It also gave a TGI [17] of 3970 nM, a GI50 [18] of 199 nM and a TGI [18] of 463 nM. It also gave a GI50 [19] greater than 45000 nM, a TGI [19] greater than 100000 nM and a GI50 [20] of 26000 nM. It also gave a TGI [20] greater than 100000 nM, a GI50 [21] of 275 nM and a TGI [21] of 1350 nM. The GI50 [22] was 378 nM, the TGI [22] was 5480 nM and the GI50 [23] was 1650 nM. The TGI [23] was 3680 nM, the GI50 [24] was 348 nM and the TGI [24] was 1340 nM. The GI50 [25] was 191 nM, the TGI [25] was 587 nM and the GI50 [26] was 745 nM. The TGI [26] was greater than 100000 nM, the GI50 [27] was 254 nM and the TGI [27] was 705 nM. The GI50 [28] was 178 nM, the TGI [28] was 469 nM and the GI50 [29] was 596 nM. The TGI [29] was 1880 nM, the GI50 [30] was 204 nM and the TGI [30] was 610 nM. For the same molecule, the GI50 [31] was 1940 nM, the TGI [31] was 5270 nM and the GI50 [32] was 305 nM. The TGI [32] was 942 nM, the GI50 [33] was 316 nM and the TGI [33] was 1160 nM. The GI50 [34] was 253 nM, the TGI [34] was 624 nM and the GI50 [35] was 303 nM. For the same molecule, the TGI [35] was 1520 nM, the GI50 [36] was 644 nM and the TGI [36] was 5630 nM. For the same molecule, the GI50 [37] was 1380 nM, the TGI [37] was 2700 nM and the GI50 [38] was 1380 nM. For the same molecule, the TGI [38] was 2980 nM, the GI50 [39] was 180 nM and the TGI [39] was 484 nM. It also gave a GI50 [40] of 1640 nM, a TGI [40] of 3460 nM and a GI50 [41] of 366 nM. For the same molecule, the TGI [41] was 1750 nM, the GI50 [42] was 410 nM and the TGI [42] was 1570 nM. The GI50 [43] was 438 nM, the TGI [43] was 1720 nM and the GI50 [44] was 959 nM. For the same molecule, the TGI [44] was 5230 nM, the GI50 [45] was 463 nM and the TGI [45] was 1830 nM. For the same molecule, the GI50 [46] was 696 nM, the TGI [46] was 2620 nM and the GI50 [47] was 1340 nM. For the same molecule, the TGI [47] was 2920 nM, the GI50 [48] was 1970 nM and the TGI [48] was 4390 nM. For the same molecule, the GI50 [49] was 233 nM, the TGI [49] was 1600 nM and the GI50 [50] was 334 nM. It also gave a TGI [50] of 1940 nM, a GI50 [51] of 1990 nM and a TGI [51] of 4970 nM. For the same molecule, the GI50 [52] was 361 nM, the TGI [52] was 1640 nM and the GI50 [53] was 177 nM. For the same molecule, the TGI [53] was 329 nM, the GI50 [54] was 358 nM and the TGI [54] was 1330 nM. For the same molecule, the GI50 [55] was 1940 nM, the TGI [55] was 4290 nM and the GI50 [56] was 1540 nM. It also gave a TGI [56] of 3930 nM, a GI50 [57] of 3250 nM and a TGI [57] of 24400 nM.

Molecule `O=C1c2c(c3c4ccccc4n(CCCCCCBr)c3c3[nH]c4ccccc4c23)C(=O)N1O` has a GI50 [1] of 2610 nM, a TGI [1] of 11100 nM and a GI50 [2] of 3140 nM. The TGI [2] was 16500 nM, the GI50 [3] was 1920 nM and the TGI [3] was 5570 nM. The GI50 [4] was 1730 nM, the TGI [4] was 3250 nM and the GI50 [5] was 2220 nM. The TGI [5] was 6700 nM, the GI50 [6] was 1780 nM and the TGI [6] was 3770 nM. For the same molecule, the GI50 [7] was 5140 nM, the TGI [7] was 45900 nM and the GI50 [8] was 2490 nM. It also gave a TGI [8] of 7800 nM, a GI50 [9] of 3680 nM and a TGI [9] of 12800 nM. The GI50 [10] was 2900 nM, the TGI [10] was 9520 nM and the GI50 [11] was 2870 nM. For the same molecule, the TGI [11] was 10400 nM, the GI50 [12] was 1480 nM and the TGI [12] was 2800 nM. For the same molecule, the GI50 [13] was 2230 nM, the TGI [13] was 7090 nM and the GI50 [14] was 3060 nM. For the same molecule, the TGI [14] was 13000 nM, the GI50 [15] was 2640 nM and the TGI [15] was 11200 nM. It also gave a GI50 [16] of 1830 nM, a TGI [16] of 6530 nM and a GI50 [17] of 1230 nM. It also gave a TGI [17] of 4710 nM, a GI50 [18] of 1970 nM and a TGI [18] of 4700 nM. It also gave a GI50 [19] of 2860 nM, a TGI [19] of 9500 nM and a GI50 [20] of 2110 nM. For the same molecule, the TGI [20] was 10100 nM, the GI50 [22] was 3350 nM and the TGI [22] was 11800 nM. For the same molecule, the GI50 [23] was 2750 nM, the TGI [23] was 9010 nM and the GI50 [24] was 2870 nM. It also gave a TGI [24] of 12500 nM, a GI50 [26] of 2800 nM and a TGI [26] of 10200 nM. For the same molecule, the GI50 [27] was 1940 nM, the TGI [27] was 5680 nM and the GI50 [28] was 2650 nM. The TGI [28] was 7740 nM, the GI50 [29] was 2070 nM and the TGI [29] was 7680 nM. The GI50 [30] was 2080 nM, the TGI [30] was 4630 nM and the GI50 [31] was 2090 nM. For the same molecule, the TGI [31] was 5810 nM, the GI50 [32] was 3470 nM and the TGI [32] was 13300 nM. It also gave a GI50 [33] of 2150 nM, a TGI [33] of 10800 nM and a GI50 [34] of 2740 nM. The TGI [34] was 6040 nM, the GI50 [35] was 3450 nM and the TGI [35] was 23400 nM. It also gave a GI50 [37] of 4010 nM, a TGI [37] of 15200 nM and a GI50 [38] of 2580 nM. For the same molecule, the TGI [38] was 9570 nM, the GI50 [40] was 2520 nM and the TGI [40] was 9060 nM. It also gave a GI50 [41] of 3560 nM, a TGI [41] of 14300 nM and a GI50 [42] of 4980 nM. It also gave a TGI [42] of 21500 nM, a GI50 [43] of 2090 nM and a TGI [43] of 5270 nM. The GI50 [44] was 2590 nM, the TGI [44] was 10400 nM and the GI50 [45] was 1690 nM. It also gave a TGI [45] of 4420 nM, a GI50 [46] of 2950 nM and a TGI [46] of 15700 nM. The GI50 [47] was 3320 nM, the TGI [47] was 14500 nM and the GI50 [48] was 2890 nM. For the same molecule, the TGI [48] was 9140 nM, the GI50 [49] was 2140 nM and the TGI [49] was 5530 nM. The GI50 [50] was 3480 nM, the TGI [50] was 18300 nM and the GI50 [51] was 3310 nM. The TGI [51] was 12100 nM, the GI50 [58] was 1740 nM and the TGI [58] was 7440 nM. It also gave a GI50 [52] of 2130 nM, a TGI [52] of 9380 nM and a GI50 [53] of 1980 nM. It also gave a TGI [53] of 4970 nM, a GI50 [54] of 3110 nM and a TGI [54] of 10300 nM. For the same molecule, the GI50 [55] was 3220 nM, the TGI [55] was 17400 nM and the GI50 [56] was 3700 nM. The TGI [56] was 16400 nM, the GI50 [57] was 3130 nM and the TGI [57] was 11700 nM.
